Experimental data as given in PMC6332220, “Synthesis, Characterization and Biological Evaluation of Some Quinoxaline Derivatives: A Promising and Potent New Class of Antitumor and Antimicrobial Agents” (Molecules, 2015).
In brackets after ≈: the same amount, converted by molar mass.

Columns and labels:
[1] = system: MCF-7 (breast adenocarcinoma); assay: In vitro cytotoxicity, SRB cell growth assay, MCF-7; conditions: Homo sapiens, MCF7, 48 h, read-out: IC50 (μg/mL) MCF-7
Procedure: (§1) The in vitro cytotoxic activity of the newly synthesized compounds against human breast cell line (MCF7), non-small cell lung cancer NCIH460, CNS cancer SF-268 and WI 38 (normal fibroblast cells) were evaluated using doxorubicin as the reference drug according to the method reported by Skehan et al..
(§2) The newly synthesized compounds were evaluated in vitro against three human cancer cell lines; which are MCF-7 (breast adenocarcinoma), NCI-H460 (non-small cell lung cancer) and SF-268 (CNS cancer), and WI 38 (normal fibroblast cells) were used in this study. MCF-7 was obtained from the European Collection of Cell Cultures (ECACC, Salisbury, UK) but NCI-H460, SF-268 and WI 38 were kindly provided by the National Cancer Institute (NCI, Cairo, Egypt). They grow as monolayer and routinely maintained RPMI-1640 medium supplemented with 5% heat inactivated fetal bovine serum (FBS), 2 mM glutamine and antibiotics (penicillin 100 U/mL, streptomycin 100 µg/mL), at 37 °C in a humidified atmosphere containing 5% CO2. Exponentially growing cells were obtained by plating 1.5 × 10^5 cells/mL for MCF-7 and SF-268, and 0.75 × 10^4 cells/mL for NCI-H460 followed by 24 h of incubation. The effect of the vehicle solvent (DMSO) on the growth of these cell lines was evaluated in all experiments by exposing untreated control cells to the maximum concentration (0.5%) of DMSO used in each assay.
(§3) The effect of compounds on the in vitro growth of human tumor cell lines were evaluated according to the procedure adopted by the National Cancer Institute ([…]) in the “In vitro Anticancer Drug Discovery Screen” that uses the protein-binding dye sulforhodamine B (SRB) to assess cell growth. In the assay protocol, all cells were incubated at 37 °C under humidified atmosphere containing 5% CO2. Briefly, exponentially cells growing in 96-well plates were then exposed for 48 h to five serial concentrations of each compound, starting from a maximum concentration of 150 μg/mL. Following this exposure period adherent cells were fixed, washed and stained. The bound stain was solubilized and the absorbance was measured at 492 nm in a plate reader (Bio-Tek Instruments Inc., Power wave XS, Winston, NC, USA). For each test compound and cell line, a dose response curve was obtained and the inhibitory concentration of 50% (IC50), corresponding to the concentration of the compounds that inhibited 50% of the net cell growth was calculated as described elsewhere. Doxorubicin was used as a positive control and tested in the same manner.

[2] = system: NCI-H460 (non-small cell lung cancer); assay: In vitro cytotoxicity, SRB cell growth assay, NCI-H460; conditions: Homo sapiens, NCI-H460, 48 h, read-out: IC50 (μg/mL) NCI-H460
Procedure: as §1, §2, §3

Bacillus subtilis = assay: Disk diffusion, Bacillus subtilis; format: cell-based; conditions: Gram positive, 8.0 mm disks, 10 μL
Procedure: (§4) The disk diffusion method was used for determination of the antimicrobial activity using ampicillin, gentamicin and amphotericin B as reference drugs. The results were recorded for each compounds as the average diameter as inhibition zones (IZ) of bacterial or fungal growth around the discs in mm as shown in Table 2.
(§5) Antimicrobial activities were carried out against highly pathogenic strains; three strains of Gram positive bacteria (Bacillus subtilis, Staphylococcus aureus and Streptococcus faecalis), four strains of Gram negative bacteria (Escherichia coli, Neisseria gonorrhoeae, Pseudomonas aeruginosa and Salmonella typhimurium) and three fungi strains (Aspergillus flavus, Aspergillus fumigatus and Candida albicans) isolated from primary agar plates. Antimicrobial activity of the tested samples was determined using a modified Kriby-Bauer disk diffusion method. Briefly, 100 µL of the test bacteria/fungi were grown in 10 mL of fresh media until they reached a count approximately 10^8 cells/mL for bacteria or 10^5 cells/mL for fungi. 100 µL of microbial suspension was spread onto agar plates corresponding to the broth in which they were maintained. The inoculated plates of bacterial strains were incubated at 35–37 °C for 24–48 h, while the inoculated plates of fungal strains such as A. flavus and A. fumigatus were incubated at 25 °C for 48 h and yeast as C. albicans was incubated at 30 °C for 24–48 h.
(§6) The agar disk diffusion (qualitative) method was used in this investigation for determination of the preliminary antibacterial and antifungal activities. The agar used was Mueller-Hinton agar plates that are rigorously tested for composition and pH. Further the depth of the agar in the plate is a factor to be considered in the disk diffusion method.
(§7) Reference drugs: ampicillin was used as a standard antibacterial drug for Gram positive bacteria, gentamicin as a standard antibacterial drug for Gram negative bacteria and amphotericin B as antifungal standard drug.
(§8) Bacterial and fungal strains were spread onto the surface of the agar plates using sterile cotton swabs. For evaluation of antibacterial activities, blank paper disks (Schleicher & Schuell, Alicante, Spain) with a diameter of 8.0 mm were saturated with 10 μL of tested concentration of the stock solutions. Disks were dried and then placed onto inoculated agar plates. The plates of bacterial strains were reincubated at 35–37 °C for 24–48 h, while the plates of fungal strains such as A. flavus and A. fumigatus were reincubated at 25 °C for 48 h and yeast as C. albicans was reincubated at 30 °C for 24–48 h as mentioned above. […] For an accurate analysis, tests were run in triplicate for each strain to avoid any error as described in Table 2.

Staphylococcus aureus = assay: Disk diffusion, Staphylococcus aureus; format: cell-based; conditions: Gram positive, 8.0 mm disks, 10 μL
Procedure: as §4, §5, §6, §7, §8

Pseudomonas aeruginosa [3] = assay: Disk diffusion, Pseudomonas aeruginosa; format: cell-based; conditions: Gram negative, 8.0 mm disks, 10 μL
Procedure: as §4, §5, §6, §7, §8

Salmonella typhimurium = assay: Disk diffusion, Salmonella typhimurium; format: cell-based; conditions: Gram negative, 8.0 mm disks, 10 μL
Procedure: as §4, §5, §6, §7, §8

Aspergillus fumigatus = assay: Disk diffusion, Aspergillus fumigatus; format: cell-based; conditions: Fungi, 8.0 mm disks, 10 μL
Procedure: as §4, §5, §6, §7, §8
Disk diffusion method for filamentous fungi testing by using approved standard method (M02-A11) developed by the CLSI for evaluating the susceptibilities of filamentous fungi to antifungal agents. Disk diffusion method for yeasts developed by using approved standard method (M44-A2) by the CLSI [44]. Agar-based methods such as disk diffusion can be good alternatives because they are simpler and faster than broth-based methods.

Streptococcus faecalis = assay: MIC by broth dilution, Streptococcus faecalis; format: cell-based; conditions: Enterococcus faecalis, Gram positive, 0.98-125 µg/mL, read-out: Minimum Inhibitory Concentration (MIC) (µg/mL) Streptococcus faecalis
Procedure: (§9) In this study, MIC (quantitative method) was used for evaluation of the antimicrobial activity of tested compounds. Screening was evaluated in vitro using the Broth dilution method according to CLSI [45]. All the bacteria were incubated and activated at 30 °C for 24 h inoculation into nutrient broth and the fungi were incubated in malt extract broth for 48 h. The compounds were dissolved in DMSO and then diluted using […] Mueller-Hinton broth. […] In each case triplicate tests were performed and the average was taken as the final reading. The tubes were then inoculated with the test organisms, grown in their suitable broth at 37 °C for 24 h for tested microorganisms (1 × 10^8 CFU/mL for bacteria and 1 × 10^6 CFU/mL of fungi), each 5 mL received 0.1 mL of the above inoculum and incubated at 37 °C for 24 h.

Pseudomonas aeruginosa [4] = assay: MIC by broth dilution, Pseudomonas aeruginosa; format: cell-based; conditions: Pseudomonas aeruginosa, Gram negative, 0.98-125 µg/mL, read-out: Minimum Inhibitory Concentration (MIC) (µg/mL) Pseudomonas aeruginosa
Procedure: as §9

Row | Structure (SMILES) | MIC (Streptococcus faecalis) | MIC (Pseudomonas aeruginosa [4]) | IC50 [1] | IC50 [2] | Inhibition Zone Diameter (IZ) (mm) Bacillus subtilis (Bacillus subtilis) | Inhibition Zone Diameter (IZ) (mm) Staphylococcus aureus (Staphylococcus aureus) | Inhibition Zone Diameter (IZ) (mm) Pseudomonas aeruginosa (Pseudomonas aeruginosa [3]) | Inhibition Zone Diameter (IZ) (mm) Salmonella typhimurium (Salmonella typhimurium) | Inhibition Zone Diameter (IZ) (mm) Aspergillus fumigatus (Aspergillus fumigatus)
1 | NC1=NN(c2nc3ccc(Br)cc3nc2N2N=C(N)CC2=O)C(=O)C1 [Compound 16, 6-Bromo-2,3-bis(3-amino-1H-pyrazol-5(4H)-one)quinoxaline] | 31.2 µg/mL (≈ 77.5 µM) | 125 µg/mL (≈ 310 µM) | 12.8 ± 1.46 µg/mL (≈ 31.8 µM) | 22.9 ± 0.46 µg/mL (≈ 56.9 µM) | 10 mm | 12 mm | 11 mm | 10 mm | R (R (IZ = 0 mm))
2 | Brc1ccc2nc(N3CCCCC3)c3nnnn3c2c1 [Compound 5a, 8-Bromo-4-(piperidin-1-yl)tetrazolo[1,5-a]quinoxaline] | 62.5 µg/mL (≈ 188 µM) | 125 µg/mL (≈ 375 µM) | 0.01 ± 0.001 µg/mL (≈ 0.03 µM) | 0.02 ± 0.006 µg/mL (≈ 0.06 µM) | 13 mm | 11 mm | 11 mm | 14 mm | 12 mm
3 | NNc1nc2cc(Br)ccc2nc1Cl [Compound 3, 6-Bromo-2-chloro-3-hydrazinylquinoxaline] | 15.6 µg/mL (≈ 57.1 µM) | 125 µg/mL (≈ 457 µM) | 36 ± 7.33 µg/mL (≈ 132 µM) | 26.7 ± 2.18 µg/mL (≈ 97.8 µM) | 15 mm | 14 mm | 14 mm | 13 mm | R (R (IZ = 0 mm))
4 | Brc1ccc2c(c1)n1nnnc1c1nnnn21 [Compound 11, 9-Bromoditetrazolo[1,5-a:5′,1′-c]quinoxaline] | 62.5 µg/mL (≈ 215 µM) | 125 µg/mL (≈ 429 µM) | 1.18 ± 1.03 µg/mL (≈ 4.05 µM) | 2.83 ± 0.53 µg/mL (≈ 9.72 µM) | 19 mm | 17 mm | 14 mm | 18 mm | R (R (IZ = 0 mm))

The next compounds have a lower MIC (Streptococcus faecalis) than those just listed; values first:

Row | MIC (Streptococcus faecalis) | MIC (Pseudomonas aeruginosa [4]) | Structure (SMILES) | IC50 [1] | IC50 [2] | Inhibition Zone Diameter (IZ) (mm) Bacillus subtilis (Bacillus subtilis) | Inhibition Zone Diameter (IZ) (mm) Staphylococcus aureus (Staphylococcus aureus) | Inhibition Zone Diameter (IZ) (mm) Pseudomonas aeruginosa (Pseudomonas aeruginosa [3]) | Inhibition Zone Diameter (IZ) (mm) Salmonella typhimurium (Salmonella typhimurium) | Inhibition Zone Diameter (IZ) (mm) Aspergillus fumigatus (Aspergillus fumigatus)
5 | 3.9 µg/mL (≈ 11.6 µM) | > 125 µg/mL | Brc1ccc2nc(N3CCOCC3)c3nnnn3c2c1 [Compound 5b, 8-Bromo-4-(morpholin-4-yl)tetrazolo[1,5-a]quinoxaline] | 0.02 ± 0.002 µg/mL (≈ 0.0597 µM) | 0.01 ± 0.002 µg/mL (≈ 0.0298 µM) | 17 mm | 17 mm | 10 mm | 13 mm | 12 mm
6 | 1.95 µg/mL (≈ 5.85 µM) | 125 µg/mL (≈ 375 µM) | Cc1cc(C)n(-c2nc3cc(Br)ccc3nc2NN)n1 [Compound 14, 6-Bromo-3-(3,5-dimethyl-1H-pyrazol-1-yl)-2-hydrazinyl quinoxaline] | 30.3 ± 3.86 µg/mL (≈ 91 µM) | 38.3 ± 2.35 µg/mL (≈ 115 µM) | 12 mm | 12 mm | 12 mm | 10 mm | R (R (IZ = 0 mm))
7 | 0.98 µg/mL (≈ 3.64 µM) | 125 µg/mL (≈ 465 µM) | NNc1nc2ccc(Br)cc2nc1NN [Compound 9, 6-Bromo-2,3-dihydrazinylquinoxaline] | 37.1 ± 7.34 µg/mL (≈ 138 µM) | 16.4 ± 2.32 µg/mL (≈ 60.8 µM) | 28 mm | 27 mm | 31 mm | 17 mm | 5 mm
8 | 0.98 µg/mL (≈ 3.44 µM) | > 125 µg/mL | Clc1nc2ccc(Br)cc2n2nnnc12 [Compound 4, 8-Bromo-4-chlorotetrazolo[1,5-a]quinoxaline] | 0.02 ± 0.006 µg/mL (≈ 0.0703 µM) | 0.01 ± 0.004 µg/mL (≈ 0.0351 µM) | 20 mm | 26 mm | 21 mm | 17 mm | 10 mm
